Measurements published in patent US8236987B2, “Selective estrogen receptor modulator compositions and methods for treatment of disease” (The Regents of the University of California, priority 2007, dated 2012).
Entries after “also recorded” stand apart in the source; their conditions may differ. Where two headings read alike, the source gives them in different places.

Legend:
[1] = tested on: GABAB receptor-mediated outward current in hypothalamic arcuate (dopamine, POMC) neurons; membrane associated estrogen receptor; experiment: Whole-cell patch voltage clamp: baclofen-induced GABAB response (GIRK outward current) in hypothalamic arcuate neurons; format: cell-based, guinea pig
full length (ER)α = biological target: T1, full length (ER)α (Homo sapiens, UniProt P03372); experiment: Estrogen receptor binding assay (spin column, [3H]estradiol competition), (ER)α
T1 construct: purchased PanVera Corp, Madison, Wis., USA
T1 sequence (P03372 1-595): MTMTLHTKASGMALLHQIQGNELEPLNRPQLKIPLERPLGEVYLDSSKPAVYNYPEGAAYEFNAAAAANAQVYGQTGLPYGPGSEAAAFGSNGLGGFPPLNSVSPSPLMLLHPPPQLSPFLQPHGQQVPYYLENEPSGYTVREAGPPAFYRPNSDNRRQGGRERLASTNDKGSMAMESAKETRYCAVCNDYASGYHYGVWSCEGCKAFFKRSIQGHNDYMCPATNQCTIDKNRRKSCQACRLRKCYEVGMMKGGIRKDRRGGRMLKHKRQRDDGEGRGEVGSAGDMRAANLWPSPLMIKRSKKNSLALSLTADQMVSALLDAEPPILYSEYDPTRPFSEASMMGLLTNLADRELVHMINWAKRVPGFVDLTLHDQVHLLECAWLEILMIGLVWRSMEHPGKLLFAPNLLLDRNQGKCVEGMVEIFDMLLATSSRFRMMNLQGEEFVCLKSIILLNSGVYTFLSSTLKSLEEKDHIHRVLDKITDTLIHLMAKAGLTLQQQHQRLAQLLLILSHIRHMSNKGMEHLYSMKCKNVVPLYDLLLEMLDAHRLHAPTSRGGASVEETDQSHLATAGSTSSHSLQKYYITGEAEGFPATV

full length (ER)β = biological target: T2, full length (ER)β (Homo sapiens, UniProt Q92731); experiment: Estrogen receptor binding assay (spin column, [3H]estradiol competition), (ER)β
T2 construct: to full length (ER)α or (ER)β*; purchased PanVera Corp, Madison, Wis., USA

[2] = tested on: uteri of ovariectomized C57BL/6 mice; experiment: Uterine size and weight in ovariectomized mice (uterotropic action); format: in vivo; conditions: 1 μg daily for 2 days, compared with oil vehicle
Protocol: Wild-type C57BL/6 mice in these studies were obtained from Jackson laboratories. All animals were maintained under controlled temperature (25° C.) and photoperiod conditions (14-h light, 10-h dark; lights on between 0700 and 2100) with food and water ad libitum. Adult mice were ovariectomized under isoflurane anesthesia, and allowed to recover for 1 week. […] The uteri were collected, weighed and fixed in 4% paraformaldehyde for later histological analysis (data not shown).

[3] = 10 μM (PD98059 in the pipette), together with 17β-estradiol

T2 sequence (Q92731 whole entry): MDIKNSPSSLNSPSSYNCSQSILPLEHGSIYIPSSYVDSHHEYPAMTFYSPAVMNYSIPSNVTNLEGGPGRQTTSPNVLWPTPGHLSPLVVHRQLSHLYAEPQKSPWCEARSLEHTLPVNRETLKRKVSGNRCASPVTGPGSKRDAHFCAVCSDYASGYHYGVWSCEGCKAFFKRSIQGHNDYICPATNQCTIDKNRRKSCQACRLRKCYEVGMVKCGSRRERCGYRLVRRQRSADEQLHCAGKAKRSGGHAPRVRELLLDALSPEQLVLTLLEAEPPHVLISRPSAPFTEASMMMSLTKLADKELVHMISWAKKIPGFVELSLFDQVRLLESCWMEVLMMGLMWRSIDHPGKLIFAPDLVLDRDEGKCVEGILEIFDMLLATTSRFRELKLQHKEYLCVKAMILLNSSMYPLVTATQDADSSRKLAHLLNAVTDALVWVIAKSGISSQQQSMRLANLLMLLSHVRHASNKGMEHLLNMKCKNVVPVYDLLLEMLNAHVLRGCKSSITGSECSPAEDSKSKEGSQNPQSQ

## COc1ccc2c(c1)CC[C@@H]1[C@@H]2CC[C@]2(C)[C@@H](NCCCCCCN3C(=O)CCC3=O)CC[C@@H]12 [Compound U73343]
[1]; [3]
  effect on the 17β-estradiol attenuation of the baclofen response (in words): no effect

## Cl.Cl.O=S(=O)(NCCNC/C=C/c1ccc(Br)cc1)c1cccc2cnccc12 [Compound H89]
[1]; [3]
  effect on the 17β-estradiol attenuation of the baclofen response (in words): blocked

## N#CC(=C(/N)Sc1ccccc1N)/C(C#N)=C(/N)Sc1ccccc1N [Compound U0126]
[1]; 5 μM, with 17β-estradiol
  effect on the 17β-estradiol attenuation of the baclofen response (in words): did not affect 17β-estradiol inhibition of baclofen responses

## Nc1ncnc2c1ncn2[C@@H]1O[C@@H]2COP(O)(=S)O[C@H]2[C@H]1O (some centres unmarked) [Rp-cAMP]
[1]; 200 μM, intracellular dialysis, with 17β-estradiol
  effect on the 17β-estradiol attenuation of the baclofen response (in words): abolished

## COc1ccc2c(c1)CC[C@@H]1[C@@H]2CC[C@]2(C)[C@@H](NCCCCCCN3C(=O)C=CC3=O)CC[C@@H]12 [Compound U73122]
[1]; [3]
  effect on the 17β-estradiol attenuation of the baclofen response (in words): blocked

## Cn1c2ccccc2c2c3c(c4c5ccccc5n(CCC#N)c4c21)CNC3=O [Gö6976]
[1]; concentration not given, with 17β-estradiol
  effect on the 17β-estradiol attenuation of the baclofen response (in words): without effect

## CN(C)CCCn1cc(C2=C(c3c[nH]c4ccccc34)C(=O)NC2=O)c2ccccc21.Cl [BIS, bisindolylmaleimide I hydrochloride]
[1]
  effect on the 17β-estradiol attenuation of the baclofen response (in words): nearly eliminated the effects of 17β-estradiol

## CC(=O)c1c(O)c(C)c(O)c(Cc2c(O)c3c(c(C(=O)/C=C/c4ccccc4)c2O)OC(C)(C)C=C3)c1O [rottlerin]
[1]
  effect on the 17β-estradiol attenuation of the baclofen response (in words): completely blocked

## O=C(c1ccc(OCCN2CCCCC2)cc1)c1c(-c2ccc(O)cc2)sc2cc(O)ccc12 [Raloxifene, raloxifene]
[1]
  effect on the baclofen response (in words): completely mimicked the actions of 17β-estradiol; also recorded: behave like 17β-estradiol

## C[C@]12CC[C@@H]3c4ccc(O)cc4CC[C@H]3[C@@H]1CC[C@@H]2O [17β-estradiol]
[1]
  R2/R1 (second over first baclofen response): 58.6±3.4%
  decrease in the response to a second application of baclofen (GABAB outward current): 41%
[1]; 100 nM, substance alone
  effect on the baclofen response (in words): no effect

## Ac-LGLNLKEYNLV-OH [Gq peptide]
[1]
  effect on the 17β-estradiol attenuation of the baclofen response (in words): significantly blocked

## C[C@]12CC[C@@H]3c4ccc(O)cc4C[C@@H](CCCCCCCCC[S+]([O-])CCCC(F)(F)C(F)(F)F)[C@H]3[C@@H]1CC[C@@H]2O (some centres unmarked) [ICI 182,780]
[1]; 1 μM, substance alone
  effect on the baclofen response (in words): no effect
[1]; 1 μM, together with 17β-estradiol (100 nM)
  effect on the 17β-estradiol attenuation of the baclofen response (in words): blocked
[1]; 1 μM, together with 17β-estradiol (100 nM), listed as ICI-182,780
  effect on the 17β-estradiol attenuation of the baclofen response (in words): antagonizes the 17β-estradiol response

## C[C@]12CC[C@@H]3c4ccc(O)cc4CC[C@H]3[C@@H]1CC[C@H]2O [17α-estradiol]
[1]; 1 μM, substance alone
  effect on the baclofen response (in words): no effect; also recorded: inactive; also recorded: no effects were observed

## O=C(O)CN(CC(=O)O)c1ccccc1OCCOc1ccccc1N(CC(=O)O)CC(=O)O [BAPTA, 1,2-bis-(o-aminophenoxyethane)-N,N,N′,N′-tetraacetic acid]
[1]; 10 mM in the internal solution replacing EGTA, with 17β-estradiol
  effect on the 17β-estradiol attenuation of the baclofen response (in words): still observed

## 17β-estradiol 17-hemisuccinate: BSA [17β-estradiol-BSA]
[1]; 100 nM, substance alone
  effect on the baclofen response (in words): fully efficacious in inhibiting the baclofen response; also recorded: inhibited the baclofen response; also recorded: identical response to free 17β-estradiol

## COc1cccc(-c2cc(=O)c3ccccc3o2)c1N [PD98059]
[1]; [3]
  effect on the 17β-estradiol attenuation of the baclofen response (in words): did not affect 17β-estradiol inhibition of baclofen responses
[1]; substance 10 μM in the pipette together with 17β-estradiol
  R2/R1 (second over first baclofen response), substance + 17β-estradiol: 66.1±11.8%

## 4-hydroxytamoxifen
[1]
  block of the baclofen response: 25%
  effect on the baclofen response (in words): behave like 17β-estradiol
Full length (ER)α
  Relative binding affinity (ER)α: 36%
Full length (ER)β
  Relative binding affinity (ER)β: 43%

## C[C@]12CC[C@@H]3c4ccc(OC(=O)c5ccccc5)cc4CC[C@H]3[C@@H]1CC[C@@H]2O [estradiol benzoate]
[2]
  uterine size: noticeable increase in uterine size

## CC/C(=C(\c1ccccc1)c1ccc(OCCN(C)C)cc1)c1ccccc1 [Tamoxifen, tamoxifen]
[1]
  effect on the 17β-estradiol attenuation of the baclofen response (in words): did not attenuate the effects of 17β-estradiol
  effect on the baclofen response (in words): inactive

## CC/C(=C(\c1ccccc1)c1ccc(/C=C/C(=O)O)cc1)c1ccccc1 [GW-5638]
[1]; 1 μM, substance alone
  effect on the baclofen response (in words): significantly more efficacious than 17β-estradiol; also recorded: behave like 17β-estradiol
